The values that follow come from patent US12673945B2, “3-((8-((1H-pyrazol-4-yl)amino)imidazo[1,2-a]pyridin-3-yl)ethinyl)-n-phenylbenzamide derivative, method for preparing same, and pharmaceutical composition containing same as active ingredient for prevention or treatment of cancer” (DAEGU-GYEONGBUK MEDICAL INNOVATION FOUNDATION, priority 2020, dated 2026).

For orientation: GI50 means the concentration that inhibits growth by half.

The structures appear in SMILES notation. Bounds are passed on as bounds.

Common to all, as to type: cell-based
For experiment [1], the system named is T315I-KOPM28 cells. As to the kind of experiment: human CML cell proliferation inhibition. Particulars: 72 hours, Cell Counting Kit-8. In a few lines:
(§1)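 Seed 1×10^4 cells/well; add compound, 9 concentrations by 5-fold dilution, final 0–10 μM, or DMSO; incubate 72 h, 37 °C, CO2; add CCK-8 for 2 h; read A450; normalise to vehicle; fit GI50.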

In experiment [2] the test system is TCCS cells. As to the kind of experiment: human CML cell proliferation inhibition. Particulars: 72 hours, Cell Counting Kit-8. In a few lines:
as §1

Experiment [3] has as its system KOPM28 cells. As to the kind of experiment: human CML cell proliferation inhibition. Particulars: 72 hours, Cell Counting Kit-8. In a few lines:
as §1
A general note: Formazan colour is commonly taken as a measure of viable cells.

Experiment [4] relates to T315I-TCCS cells. As to the kind of experiment: human CML cell proliferation inhibition. Conditions: 72 hours, Cell Counting Kit-8. In a few lines: as §1
Experiment [5] relates to Parental (Ba/F3). The experiment can be described thus: Ba/F3 cell proliferation inhibition. Particulars: BaF3; 72 hours, Cell Counting Kit-8. In a few lines: (§2)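 Parental and T315I-Bcr-Abl Ba/F3 cells, 1×10^4 per well, exposed 72 h at 37 °C to nine 3-fold dilutions, final 0 to 10 μM. Viability by CCK-8 after 2 h, absorbance 450 nm; GI50 fitted from percent of vehicle-treated cells.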

The subject of experiment [6] is T315I-Bcr-Abl (Ba/F3). As to the kind of experiment: Ba/F3 cell proliferation inhibition. Conditions: BaF3; 72 hours, Cell Counting Kit-8. The essentials: as §2

As for `Cc1cc(F)c(C(=O)Nc2ccc(CN3CCC(N(C)C)C3)c(C(C)(C)C#N)c2)cc1C#Cc1cnc2c(Nc3cnn(C)c3)cccn12` (stereo not drawn) [Example 41, N-(3-(2-cyanopropan-2-yl)-4-((3-(dimethylamino)pyrrolidin-1-yl)methyl)phenyl)-2-fluoro-4-methyl-5-((8-((1-methyl-1H-pyrazol-4-yl)amino)imidazo[1,2-a]pyridin-3-yl)ethynyl)benzamide], the GI50 was above 100 nM in experiment [1]; below 10 nM in experiment [2]; below 10 nM in experiment [3]; above 100 nM in experiment [4]; 500 to 5000 nM in experiment [5]; 50 to 500 nM in experiment [6].

Turning to `Cc1cc(F)c(C(=O)Nc2ccc(CN3CCCN(C)CC3)c(C(C)(C)C#N)c2)cc1C#Cc1cnc2c(Nc3cnn(C)c3)cccn12` [Example 42, N-(3-(2-cyanopropan-2-yl)-4-((4-methyl-1,4-diazepan-1-yl)methyl)phenyl)-2-fluoro-4-methyl-5-((8-((1-methyl-1H-pyrazol-4-yl)amino)imidazo[1,2-a]pyridin-3-yl)ethynyl)benzamide], the GI50 in experiment [1] was above 100 nM; in experiment [2] it was below 10 nM; in experiment [3], below 10 nM; in experiment [4], 100 nM; in experiment [5] it was 500 to 5000 nM; in experiment [6] it was 50 to 500 nM.

As to `Cc1cc(F)c(C(=O)Nc2ccc(CN3CCN(CCO)CC3)c(C(C)(C)C#N)c2)cc1C#Cc1cnc2c(Nc3cnn(C)c3)cccn12` [Example 43, N-(3-(2-cyanopropan-2-yl)-4-((4-(2-hydroxyethyl)piperazin-1-yl)methyl)phenyl)-2-fluoro-4-methyl-5-((8-((1-methyl-1H-pyrazol-4-yl)amino)imidazo[1,2-a]pyridin-3-yl)ethynyl)benzamide], the GI50 in experiment [1] was above 100 nM; in experiment [2], below 10 nM; in experiment [3], below 10 nM; in experiment [4], 100 nM; in experiment [5] it was 500 to 5000 nM; in experiment [6], 50 to 500 nM.

Take `Cc1cc(F)c(C(=O)Nc2ccc(CN3CCN(C)C(=O)C3)c(C(C)(C)C#N)c2)cc1C#Cc1cnc2c(Nc3cnn(C)c3)cccn12` [Example 44, N-(3-(2-cyanopropan-2-yl)-4-((4-methyl-3-oxopiperazin-1-yl)methyl)phenyl)-2-fluoro-4-methyl-5-((8-((1-methyl-1H-pyrazol-4-yl)amino)imidazo[1,2-a]pyridin-3-yl)ethynyl)benzamide]: the GI50 is above 100 nM in experiment [1]; below 10 nM in experiment [2]; below 10 nM in experiment [3]; above 100 nM in experiment [4]; 500 to 5000 nM in experiment [5]; 50 to 500 nM in experiment [6].

For `Cc1cc(F)c(C(=O)Nc2ccc(CN3CCN(S(C)(=O)=O)CC3)c(C(C)(C)C#N)c2)cc1C#Cc1cnc2c(Nc3cnn(C)c3)cccn12` [Example 45, N-(3-(2-cyanopropan-2-yl)-4-((4-(methylsulfonyl)piperazin-1-yl)methyl)phenyl)-2-fluoro-4-methyl-5-((8-((1-methyl-1H-pyrazol-4-yl)amino)imidazo[1,2-a]pyridin-3-yl)ethynyl)benzamide], the GI50 in experiment [1] was above 100 nM; in experiment [2] it was below 10 nM; in experiment [3] it was below 10 nM; in experiment [4], above 100 nM; in experiment [5] it was above 5000 nM; in experiment [6], 500 to 5000 nM.

Consider `Cc1cc(F)c(C(=O)Nc2ccc(Cn3ccnc3)c(C(C)(C)C#N)c2)cc1C#Cc1cnc2c(Nc3cnn(C)c3)cccn12` [Example 46, N-(4-((1H-imidazol-1-yl)methyl)-3-(2-cyanopropan-2-yl)phenyl)-2-fluoro-4-methyl-5-((8-((1-methyl-1H-pyrazol-4-yl)amino)imidazo[1,2-a]pyridin-3-yl)ethynyl)benzamide], for which the GI50 in experiment [1] is above 100 nM; in experiment [2] it was below 10 nM; in experiment [3], below 10 nM; in experiment [4], above 100 nM; in experiment [5] it was above 5000 nM; in experiment [6], 50 to 500 nM.

`Cc1cc(F)c(C(=O)Nc2cc(N3CCN(C)CC3)cc(C(F)(F)F)c2)cc1C#Cc1cnc2c(Nc3cnn(C)c3)cccn12` [Example 47, 2-fluoro-4-methyl-5-((8-((1-methyl-1H-pyrazol-4-yl)amino)imidazo[1,2-a]pyridin-3-yl)ethynyl)-N-(3-(4-methylpiperazin-1-yl)-5-(trifluoromethyl)phenyl)benzamide]: the GI50 in experiment [1] is 100 nM; in experiment [2] it was below 10 nM; in experiment [3], below 10 nM; in experiment [4], 100 nM; in experiment [5] it was 500 to 5000 nM; in experiment [6], 50 to 500 nM.

For `Cc1cc(F)c(C(=O)Nc2cc(N(C)CCN(C)C)cc(C(F)(F)F)c2)cc1C#Cc1cnc2c(Nc3cnn(C)c3)cccn12` [Example 48, N-(3-((2-(dimethylamino)ethyl)(methyl)amino)-5-(trifluoromethyl)phenyl)-2-fluoro-4-methyl-5-((8-((1-methyl-1H-pyrazol-4-yl)amino)imidazo[1,2-a]pyridin-3-yl)ethynyl)benzamide], the GI50 is above 100 nM in experiment [1]; below 10 nM in experiment [2]; below 10 nM in experiment [3]; 100 nM in experiment [4]; above 5000 nM in experiment [5]; 50 to 500 nM in experiment [6].

Regarding `Cc1cc(F)c(C(=O)Nc2cc(N3CCN(C)C(=O)C3)cc(C(F)(F)F)c2)cc1C#Cc1cnc2c(Nc3cnn(C)c3)cccn12` [Example 49, 2-fluoro-4-methyl-5-((8-((1-methyl-1H-pyrazol-4-yl)amino)imidazo[1,2-a]pyridin-3-yl)ethynyl)-N-(3-(4-methyl-3-oxopiperazin-1-yl)-5-(trifluoromethyl)phenyl)benzamide], the GI50 is 100 nM in experiment [1]; below 10 nM in experiment [2]; below 10 nM in experiment [3]; below 10 nM in experiment [4]; 500 to 5000 nM in experiment [5]; 50 to 500 nM in experiment [6].

Take `Cc1cc(F)c(C(=O)Nc2cc(OCCN(C)C)cc(C(F)(F)F)c2)cc1C#Cc1cnc2c(Nc3cnn(C)c3)cccn12` [Example 50, N-(3-(2-(dimethylamino)ethoxy)-5-(trifluoromethyl)phenyl)-2-fluoro-4-methyl-5-((8-((1-methyl-1H-pyrazol-4-yl)amino)imidazo[1,2-a]pyridin-3-yl)ethynyl)benzamide]: the GI50 was above 100 nM in experiment [1]; below 10 nM in experiment [2]; below 10 nM in experiment [3]; 100 nM in experiment [4]; above 5000 nM in experiment [5]; 50 to 500 nM in experiment [6].

On to `Cc1cc(F)c(C(=O)Nc2cc(OCCCN(C)C)cc(C(F)(F)F)c2)cc1C#Cc1cnc2c(Nc3cnn(C)c3)cccn12` [Example 51, N-(3-(3-(dimethylamino)propoxy)-5-(trifluoromethyl)phenyl)-2-fluoro-4-methyl-5-((8-((1-methyl-1H-pyrazol-4-yl)amino)imidazo[1,2-a]pyridin-3-yl)ethynyl)benzamide], for which the GI50 is 100 nM in experiment [1]; 100 nM in experiment [2]; below 10 nM in experiment [3]; 100 nM in experiment [4]; above 5000 nM in experiment [5]; 50 to 500 nM in experiment [6].

For `Cc1cc(F)c(C(=O)Nc2cc(-c3ccncc3)cc(C(F)(F)F)c2)cc1C#Cc1cnc2c(Nc3cnn(C)c3)cccn12` [Example 52, 2-fluoro-4-methyl-5-((8-((1-methyl-1H-pyrazol-4-yl)amino)imidazo[1,2-a]pyridin-3-yl)ethynyl)-N-(3-(pyridin-4-yl)-5-(trifluoromethyl)phenyl)benzamide], the GI50 is 100 nM in experiment [1]; below 10 nM in experiment [2]; below 10 nM in experiment [3]; 100 nM in experiment [4]; above 5000 nM in experiment [5]; 50 to 500 nM in experiment [6].

On to `Cc1cc(F)c(C(=O)Nc2cc(-c3cccnc3)cc(C(F)(F)F)c2)cc1C#Cc1cnc2c(Nc3cnn(C)c3)cccn12` [Example 53, 2-fluoro-4-methyl-5-((8-((1-methyl-1H-pyrazol-4-yl)amino)imidazo[1,2-a]pyridin-3-yl)ethynyl)-N-(3-(pyridin-3-yl)-5-(trifluoromethyl)phenyl)benzamide], for which the GI50 in experiment [1] is above 100 nM; in experiment [2], below 10 nM; in experiment [3], below 10 nM; in experiment [4], 100 nM; in experiment [5] it was above 5000 nM; in experiment [6], 50 to 500 nM.

In the case of `Cc1cc(F)c(C(=O)Nc2cc(-c3cnn(C)c3)cc(C(F)(F)F)c2)cc1C#Cc1cnc2c(Nc3cnn(C)c3)cccn12` [Example 54, 2-fluoro-4-methyl-N-(3-(1-methyl-1H-pyrazol-4-yl)-5-(trifluoromethyl)phenyl)-5-((8-((1-methyl-1H-pyrazol-4-yl)amino)imidazo[1,2-a]pyridin-3-yl)ethynyl)benzamide], the GI50 in experiment [1] was above 100 nM; in experiment [2], below 10 nM; in experiment [3] it was 100 nM; in experiment [4], 100 nM; in experiment [5] it was above 5000 nM; in experiment [6], 50 to 500 nM.

As for `Cc1cc(F)c(C(=O)Nc2ccc(CN3CCN(C)CC3)c(C(F)(F)F)c2)cc1C#Cc1cnc2c(Nc3cnn(C)c3)cccn12` [Example 55, 2-fluoro-4-methyl-5-((8-((1-methyl-1H-pyrazol-4-yl)amino)imidazo[1,2-a]pyridin-3-yl)ethynyl)-N-(4-((4-methylpiperazin-1-yl)methyl)-3-(trifluoromethyl)phenyl)benzamide], the GI50 in experiment [1] was below 10 nM; in experiment [2] it was below 10 nM; in experiment [3] it was below 10 nM; in experiment [4], below 10 nM; in experiment [5], 500 to 5000 nM; in experiment [6] it was below 50 nM.
